Source: ChEMBL document CHEMBL1140776, “Parasiticidal 2-alkoxy- and 2-aryloxyiminoalkyl trifluoromethanesulfonanilides” (2008)

Experiments:
Type in all cases: functional
Ctenocephalides felis [1] = assay: Parasiticidal activity against Ctenocephalides felis by cat flea assay
Rhipicephalus sanguineus [2] = assay: Parasiticidal activity against Rhipicephalus sanguineus assessed as mortality after 24 hrs by brown dog tick assay; set-up: concentration or dose not given beside the values
Ctenocephalides felis [3] = assay: Parasiticidal activity against Ctenocephalides felis after 8 hrs by cat flea assay; set-up: concentration or dose not given beside the values
Haemonchus contortus [4] = assay: Parasiticidal activity against Haemonchus contortus by larval assay
Rhipicephalus sanguineus [5] = assay: Parasiticidal activity against Rhipicephalus sanguineus assessed per tick by brown dog tick assay
Rhipicephalus sanguineus [6] = assay: Parasiticidal activity against Rhipicephalus sanguineus assessed as mortality at 10 ug/tick by brown dog tick assay
Ctenocephalides felis [7] = assay: Parasiticidal activity against Ctenocephalides felis assessed as mortality after 24 hrs by cat flea assay; set-up: concentration or dose not given beside the values
Haemonchus contortus [8] = assay: Parasiticidal activity against avermectin-resistant Haemonchus contortus CAVR by larval assay
Haemonchus contortus [9] = assay: Parasiticidal activity against benzimidazole and levamisole-resistant Haemonchus contortus Lawes by larval assay
[10] = tested on: Trichostrongylus colubriformis; assay: Parasiticidal activity against Trichostrongylus colubriformis
[11] = tested on: Teladorsagia circumcincta; assay: Parasiticidal activity against Ostertagia circumcincta McMaster

Compound | Activity (Ctenocephalides felis [3]) | LD99 (Haemonchus contortus [4]) | other results
CC/C(=N\OCc1ccc(C(F)(F)F)cc1C(F)(F)F)c1cc(Cl)ccc1NS(=O)(=O)C(F)(F)F | 100% | 0.56 µM | LC50 (Ctenocephalides felis [1]): 19 ng/cm2; Activity (Rhipicephalus sanguineus [2]): 88%
CC/C(=N\OCC1CCCCC1)c1cc(Cl)ccc1NS(=O)(=O)C(F)(F)F |  | 7 µM | LD50 (Rhipicephalus sanguineus [5]): 3.4 µg; LC50 (Ctenocephalides felis [1]): 29 ng/cm2; Activity (Rhipicephalus sanguineus [6]): 100%; Activity (Ctenocephalides felis [7]): 100%; Activity (Rhipicephalus sanguineus [2]): 100%
CC/C(=N\OCc1ccc(F)cc1F)c1cc(Cl)ccc1NS(=O)(=O)C(F)(F)F | 95% | 7.2 µM | 
C/C(=N\Oc1ccccc1)c1cc(Cl)ccc1NS(=O)(=O)C(F)(F)F | 6% | 14 µM | 
O=S(=O)(Nc1ccc(Cl)cc1/C=N/OCc1ccc(C(F)(F)F)cc1C(F)(F)F)C(F)(F)F | 10% | 0.59 µM | 
CC(C)/C(=N\OCc1ccc(C(F)(F)F)cc1)c1cc(Cl)ccc1NS(=O)(=O)C(F)(F)F | 12% | 2.6 µM | 
CCC/C(=N\OCc1ccc(C(F)(F)F)cc1)c1cc(Cl)ccc1NS(=O)(=O)C(F)(F)F | 36% | 3.2 µM | 
CC/C(=N\OCc1ccc(Cl)cc1Cl)c1cc(Cl)ccc1NS(=O)(=O)C(F)(F)F | 94% | 0.84 µM | 
CC(C)/C(=N\OCc1ccc(C(F)(F)F)cc1C(F)(F)F)c1cc(Cl)ccc1NS(=O)(=O)C(F)(F)F | 10% | 1.5 µM | 
O=S(=O)(Nc1ccc(Cl)cc1/C=N/OCc1ccc(Cl)cc1Cl)C(F)(F)F | 12% | 2 µM | 
CCC/C(=N\OCc1ccc(C(F)(F)F)cc1C(F)(F)F)c1cc(Cl)ccc1NS(=O)(=O)C(F)(F)F | 79% | 2.5 µM | 
C/C(=N\OCc1ccc(C(F)(F)F)cc1C(F)(F)F)c1cc(Cl)ccc1NS(=O)(=O)C(F)(F)F | 2% | 0.22 µM | LD99 (Haemonchus contortus [8]): 0.53 µM; LD99 (Haemonchus contortus [9]): 0.53 µM; LD99 [10]: 2.2 µM; LD99 [11]: 1.1 µM
O=S(=O)(Nc1ccc(Cl)cc1/C(=N/OCc1ccc(C(F)(F)F)cc1C(F)(F)F)c1ccccc1)C(F)(F)F | 21% | 3.1 µM | 
CC/C(=N\OCc1ccc(C(C)(C)C)cc1)c1cc(Cl)ccc1NS(=O)(=O)C(F)(F)F | 8% | 6.9 µM | 
CC/C(=N\OCc1ccc(C(F)(F)F)cc1)c1cc(Cl)ccc1NS(=O)(=O)C(F)(F)F |  | 0.84 µM | LD50 (Rhipicephalus sanguineus [5]): 2.7 µg; LC50 (Ctenocephalides felis [1]): 17 ng/cm2; Activity (Ctenocephalides felis [7]): 98%; Activity (Rhipicephalus sanguineus [2]): 90%
